According to patent publication US20120115869A1, “TETRAZOLE DERIVATIVES” (MERCK SERONO S.A., priority 2009, published 2012):

Key:
CRTH2 (DP2) = target: T1, CRTH2 (DP2) (Homo sapiens, UniProt Q9Y5Y4); test: Radioligand binding Scintillation Proximity Assay ([3H]PGD2, hCRTH2-CHO cell membranes); details: 1.5 nM [3H]PGD2, hCRTH2-CHO cell membranes, SPA
T1 construct: host or cells: CHO cells
T1 sequence (Q9Y5Y4 1-395): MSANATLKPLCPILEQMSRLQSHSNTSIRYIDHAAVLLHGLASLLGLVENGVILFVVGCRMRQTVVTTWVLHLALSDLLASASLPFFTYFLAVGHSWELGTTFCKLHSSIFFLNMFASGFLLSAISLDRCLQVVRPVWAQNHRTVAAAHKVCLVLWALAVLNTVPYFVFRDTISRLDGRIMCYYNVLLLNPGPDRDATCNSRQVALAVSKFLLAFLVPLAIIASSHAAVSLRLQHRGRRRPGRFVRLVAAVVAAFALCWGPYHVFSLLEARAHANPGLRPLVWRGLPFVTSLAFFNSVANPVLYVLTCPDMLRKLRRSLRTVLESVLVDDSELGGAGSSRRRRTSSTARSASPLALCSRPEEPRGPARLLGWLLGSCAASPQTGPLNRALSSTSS
How it was run: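 Membranes from CHO cells stably expressing human CRTH2, made by nitrogen cavitation and differential centrifugation. Compounds competed with [3H]PGD2 at 1% DMSO for 90 min with agitation at room temperature. Non-specific binding taken with 10 μM PGD2.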

CRTH2 [1] = target: T2, CRTH2 (Homo sapiens, UniProt Q9Y5Y4); test: Cellular Dielectric Spectroscopy in CHO-CRTH2 cells; type: cell-based; details: fixed concentration of PGD2 (EC80), read-out: IC50(μM) (CDS, antagonist)
T2 construct: expressed in transfected cells; host or cells: CHO cells
T2 sequence (Q9Y5Y4 1-395): T1 sequence (Q9Y5Y4 1-395)
Description: Cellular Dielectric Spectroscopy (CDS) is a label-free technology based on the measurement of complex impedance changes (delta Z or dZ). Impedance (Z) is related to the ratio of voltage to current as described by Ohm's law (Z=V/I). In order to measure the changes in impedance that occur in response to receptor stimulation, mammalian cells are seeded onto a custom 96-well microtiter plate that contains electrodes at the bottom of each well Key contributors to the impedance measurements are changes in cell-substrate adherence, changes in cell shape and volume, and changes in cell-cell interactions. These factors individually or collectively affect the flow of current, influencing the magnitude and characteristics of the signal measured. G-protein coupled receptors ligand-induced activity can be measured using this technology and specific G protein coupling can be identified. Activities of reference agonist and antagonist molecules of CRTH2 have been measured using this assay and similar results were obtained compared to different functional assays.
CHO—CRTH2 cells are cultured in HAM's F12 (Lonza, Switzerland) supplemented with 10% foetal calf serum (PAA, Australia) and 400 μg/ml Geneticin. 100000 cells/well are seeded in standard 96 W Microplates (MDS Analytical Technologies) and incubated at 37° C. in 5% CO2 for 24 hours. Cells are washed twice with 135 μl of cell key buffer (Hank's Balanced Salt Solution 1× (HBSS) (Invitrogen) supplemented with 10 mM HEPES pH 7.4 in presence of 1% DMSO). […] Results are expressed as the amplitude between the highest and the lowest signal produced (max-min). Basal and maximum activities are measured, respectively in absence or presence of PGD2 (EC80).

[2] = test system: eosinophils (PGD2-induced cell shape change); test: PGD2-induced eosinophil cell shape assay in human whole blood; type: cell-based; details: 10 nM PGD2 final
Description: The Compounds of Formula (I) were diluted in dimethylsulphoxide so that the total volume of dimethylsulfoxide was kept constant at 2% dimethylsulphoxide (Me2SO). Serial dilutions of 200 μM to 0.09 μM were prepared. Samples of 90 μl of human blood from healthy volunteers (Centre de Transfusion Sanguine de Genéve) were pre-incubated in polypropylene Falcon tubes (BD 352063) for 20 minutes in a water bath at 37° C. with 10 μl of diluted compounds. For CRTH2 activation, 100 μl PGD2 (Cayman 12010) at 20 nM was added (10 nM final) to each tube and cells were maintained at 37° C. For negative control cells were treated with PBS. After 10 minutes, cell activation was stopped with 120 μl Formaldehyde 10% (4% final, Fluka 41650) and cells were rested for 10 minutes at room temperature. Fixed cells were transferred into polypropylene tubes and then treated for 1 hour in a water bath at 37° C. with 2 ml of Triton-Surfact-Amps X-100 (Pierce 28314) at 0.166% (0.13% Triton final). After several washes with PBS (red cells lysed progressively during washes, two washes are necessary), cells were analyzed by flow cytometry on a FACSCalibur. In one embodiment, the compounds of Formula (I) of the present invention are capable of blocking the cell shape change of eosinophils induced by PGD2 in Whole Blood.

CRTH2 [3] = target: T2, CRTH2; test: [35S]GTPγS binding assay on CHO-CRTH2 cell membranes; type: biochemical; details: without addition of PGD2; 100% of Emax being the activity measured by the addition of 1 μM of PGD2
Description: Adherent CHO cells expressing hCRTH2 (Euroscreen, Belgium) were cultured in 225 cm^2 cell culture flasks (Corning, USA) in 30 ml of medium. After two rinses of phosphate buffered saline (PBS), cells were harvested in 10 ml of PBS containing 1 mM EDTA, centrifuged at 500×g for 5 min at 4° C. and frozen at −80° C. The pellet was re-suspended in 50 mM Tris-HCl, pH 7.4, 2 mM EDTA, 250 mM Sucrose, containing protease inhibitor cocktail tablets, (Complete EDTA-free, Roche, Germany) and incubated 30 min at 4° C. Cells were disrupted by nitrogen cavitation (Parr Instruments, USA) at 4° C. (800 p.s.i. for 30 min), and centrifuged at 500×g for 10 min at 4° C. Pellet containing nuclei and cellular debris was discarded and supernatant was centrifuged 60 min at 4° C. at 45000×g. Membrane pellet was re-suspended in storage buffer (10 mM HEPES/KOH pH 7.4, 1 mM EDTA, 250 mM sucrose, protease inhibitor cocktail tablets) using Dounce homogenization and frozen in liquid nitrogen, and stored at 80° C.
The [^35S]GTPγS assay measures the increase in guanine nucleotide exchange at G-proteins in cell membranes, resulting from agonist (PGD2) binding to CRTH2. […] Briefly, Compounds of Formula (I) are incubated in 96-well scintillating white polystyrene plates (Perkin Elmer, USA) in a final volume of 200 μl containing 20 mM HEPES/KOH pH 7.4, 3 mM MgCl2, 10 μg/ml Saponin, 5 μM GDP, 75 mM NaCl and 2% of dimethylsulphoxide (DMSO). […] After 60 min incubation at 30° C., reaction is stopped by centrifugation at 700×g, at 4° C. for 10 minutes and supernatant is removed. […] For IC50 determination, increasing concentrations of compounds are incubated in presence of a fixed concentration of PGD2 (EC80). For EC50 measurements, compounds are incubated without addition of PGD2. Basal [^35S]GTPγS activity is determined without addition of any ligands or compounds. 100% [^35S]GTPγS activity is measured by the addition of 1 μM of PGD2.

[4] = In vivo pharmacokinetic evaluation in mouse; details: mice
Description: In order to study the pharmacokinetic (PK) profile of test compounds in vivo, Sprague Dawley male rats or C57BL/6 female mice were dosed intravenously or after oral gavage. For both species, test compounds were dosed in solution at 1 mg/kg for i.v. route (10% ethanol, 10% N,N-dimethylacetamide, 30% propylene glycol, 50% water, v/v) and in suspension at 5 mg/kg (0.5% carboxymethylcellulose suspension, containing 0.25% Tween 20 in water) for oral gavage. PK profile in rat was obtained from 3 animals per dosing route and mouse PK profile was determined from 3 animals for each time points. The volume of administration was 2 mL/kg for i.v. dosing in both species and either 5 mL/kg (rat) or 10 mL/kg (mouse) for oral gavage. Blood samples (100 μL/time point) were collected at 0.083 (5 min), 0.25, 0.5, 1, 4, 7 and 24 hours post-dose for i.v. dosing, and at 0.5, 1, 4, 7 and 24 h for oral dosing, into heparin-Li+ containing tubes. For rats, all blood samples were collected trough a catheter in the carotid artery (placed in the artery the day before the experiment), under light isoflurane anesthesia, and stored on ice until centrifugation and plasma isolation. For mouse, blood samples were collected from intracardiac puncture at sacrifice at each time point and processed as described above for the rat. Plasma samples were stored frozen until analysis (−20° C. to −70° C.). For bioanalysis, samples were processed by protein precipitation (acetonitrile, formic acid 0.1%, addition of 3 volumes) after addition of one internal standard and analysed using a sensitive and selective LC/MS/MS method. An aliquot of the resulting supernatant was subject to LC/MS/MS analysis using a reverse phase column (Waters Xterra, C8, (3.5 μm particle size, 2.1×50 mm) and a short gradient (1 min) from (Solvent A) 85% water, 15% acetonitrile and 0.1% formic acid to (Solvent B) 90% acetonitrile, 10% water and 0.1% formic acid followed by isocratic conditions of Solvent B for 3.5 min at 0.4 mL/min. Column effluent was monitored using a Sciex API 4000 triple quadrupole mass spectrometer with a Turbo V electrospray ion source. Unknown concentrations of test compounds were determined using a calibration curve ranging from 1 to 3000 ng/mL.

| SMILES | IC50 (CRTH2 (DP2)) [µM] | IC50 [2] [µM] | Emax (CRTH2 [3]) [%] | also measured |
| --- | --- | --- | --- | --- |
| CCCCC(=O)N(Cc1cccc(OC)c1)c1cccc(-c2nnn[nH]2)c1 [Example 13, N-(3-methoxybenzyl)-N-[3-(1H-tetrazol-5-yl)phenyl]pentanamide] | 0.053 | 0.914 |  |  |
| CCCCC(=O)N(Cc1ccc(OC)cc1)c1cc(Cl)cc(-c2nnn[nH]2)c1 [Example 46, N-[3-chloro-5-(1H-tetrazol-5-yl)phenyl]-N-(4-methoxybenzyl)pentanamide] | 0.0042 | 0.245 | -9.5 |  |
| CCC(=O)N(Cc1ccc(OC(F)(F)F)c(Cl)c1)c1cc(F)cc(-c2nnn[nH]2)c1 [Example 56, N-[3-chloro-4-(trifluoromethoxy)benzyl]-N-[3-fluoro-5-(1H-tetrazol-5-yl)phenyl]propanamide] | 0.024 | 0.082 | -13 | clearance ([4]; female, C57BL/6, mouse, plasma, iv, i.v. 1 mg/Kg): 15 mL/min/kg; AUC ([4]; female, C57BL/6, mouse, plasma, oral gavage 5 mg/Kg): 1910 ng·h/mL; bioavailability ([4]; female, C57BL/6, mouse, plasma, po 5 mg/Kg vs iv 1 mg/Kg): 36% |
| CCC(=O)N(Cc1ccc(OC(F)(F)F)cc1)c1cc(Cl)cc(-c2nnn[nH]2)c1 [Example 57, N-[3-chloro-5-(1H-tetrazol-5-yl)phenyl]-N-[4-(trifluoromethoxy)benzyl]propanamide] | 0.015 | 0.233 |  | melting point: 144 °C |
| CCC(=O)N(Cc1ccc(C(F)(F)F)cc1)c1cc(F)cc(-c2nnn[nH]2)c1 [Example 58, N-[3-fluoro-5-(1H-tetrazol-5-yl)phenyl]-N-[4-(trifluoromethyl)benzyl]propanamide] | 0.0071 | 0.102 | -8.1 | Clearance iv (1 mg/Kg) ([4]; i.v. 1 mg/Kg): 5 mL/min/kg; AUC po (5 mg/Kg) ([4]; oral gavage 5 mg/Kg): 11212 ng·h/mL; Oral bioavailability ([4]; po 5 mg/Kg vs iv 1 mg/Kg): 76% |

Now from value to molecule, other results behind:

| IC50 (CRTH2 (DP2)) [µM] | IC50 [2] [µM] | Emax (CRTH2 [3]) [%] | SMILES | also measured |
| --- | --- | --- | --- | --- |
| 0.0088 | 0.536 |  | CCCCC(=O)N(Cc1ccc2c(c1)OCCO2)c1cccc(-c2nnn[nH]2)c1 [Example 5, N-(2,3-dihydro-1,4-benzodioxin-6-ylmethyl)-N-[3-(1H-tetrazol-5-yl)phenyl]pentanamide] | IC50 (CRTH2 [1]): 0.076 µM |
| 0.015 | 1.17 |  | CCC(=O)N(Cc1ccc2c(c1)OCCO2)c1cc(-c2nnn[nH]2)ccc1F [Example 9, N-(2,3-dihydro-1,4-benzodioxin-6-ylmethyl)-N-[2-fluoro-5-(1H-tetrazol-5-yl)phenyl]propanamide] |  |
| 0.0023 | 0.039 | -14.9 | CCCCC(=O)N(Cc1ccc2c(c1)OCCO2)c1cc(F)cc(-c2nnn[nH]2)c1 [Example 11, N-(2,3-dihydro-1,4-benzodioxin-6-ylmethyl)-N-[3-fluoro-5-(1H-tetrazol-5-yl)phenyl]pentanamide] |  |
